The numbers were not newly measured in patent publication US10543277B2, “Formulation of curcumin with enhanced bioavailability of curcumin and method of preparation and treatment thereof” (ARJUNA NATURAL PRIVATE LIMITED, priority 2005, dated 2020), which cites them from elsewhere.

The test system of data set [1] is oral premalignancy. The note with it: for responded to maintenance therapy or continued to have stable lesions / subjects who responded to maintenance therapy or continued to have stable lesions: maintenance phase; for subjects who responded to maintenance therapy or continued to have stable lesions: 53 evaluable.
Data set [2] deals with OPLs.
Data set [3] has as its system COX pathway. The conditions noted are these: 10 μM.
The test system of data set [4] is LOX (lipoxygenase) pathway. The conditions noted are these: 10 μM.
[5] abbreviates: among the 24 13-cRA subjects, 1-2 mg/kg/day for three months.

Take `CC1=C(/C=C/C(C)=C/C=C/C(C)=C\C(=O)O)C(C)(C)CCC1` [13-cRA, 13-cis-retinoic acid]: in data set [1] (high-dose induction therapy), the “rate of response at the conclusion of induction” value is 55% and the “rate of stable disease at the conclusion of induction” value was 35%. Also, in data set [1], the “responded to maintenance therapy or continued to have stable lesions” value was 92% and the “subjects who responded to maintenance therapy or continued to have stable lesions” value was 22. Also, in data set [2] (setting [5]), the “subjects with complete responses” value is listed as 2 and the “subjects with partial responses” value is 14. Moreover, in data set [2] (in vivo), the “relapse after end of therapy” value is recorded as 2-3 months. Moreover, the “subjects with intolerable conjunctivitis and hypertriglyceridemia” value in data set [2] (receiving 2 mg/kg) was 2.
`COc1cc(/C=C/C(=O)CC(=O)/C=C/c2ccc(O)c(OC)c2)ccc1O` [Curcumin, 1,7-bis(4-hydroxy-3-methoxyphenyl)-1,6-heptadiene-3,5-dione]: in data set [3], the “inhibition of metabolism of arachidonic acid to PGD2” value was 73%, the “inhibition of metabolism of arachidonic acid to PGE2” value was 70% and the “inhibition of metabolism of arachidonic acid to PGF2α” value is recorded as 64%. For the same compound, in data set [4], the “inhibition of conversion of arachidonic acid to 5-hydroxyeicosatetraenoic acid” value is given as 60% and the “inhibition of conversion of arachidonic acid to 8-hydroxyeicosatetraenoic acid” value was 51%.
For the compound `CC1=C(/C=C/C(C)=C/C=C/C(C)=C/C=C/C=C(C)/C=C/C=C(C)/C=C/C2=C(C)CCCC2(C)C)C(C)(C)CCC1` [β-carotene], in data set [1], the “responded to maintenance therapy or continued to have stable lesions” value was 45% and the “subjects who responded to maintenance therapy or continued to have stable lesions” value was 13.
